Data taken from the NIST ThermoML archive (doi:10.1016/j.tca.2015.02.020).

Test: molar heat capacity at constant pressure; xn = mol fraction of the nth substance listed
Conditions: 101 kPa, Liquid, Small sample (50 mg) DSC

CC(O)CN (stereo unspecified) [1-amino-2-propanol] + O
Conditions	molar heat capacity at constant pressure [J/K/mol]
207.73 K, x1 = 0.68	127.89
209.98 K, x1 = 0.19	80.53
209.98 K, x1 = 0.26	88.72
210.13 K, x1 = 0.68	136.98
210.14 K, x1 = 0.16	76.29
212.31 K, x1 = 0.16	80.64
212.31 K, x1 = 0.19	81.68
212.31 K, x1 = 0.26	87.41
212.33 K, x1 = 0.15	76.55
212.46 K, x1 = 0.68	129.03
213.3 K, x1 = 0.19	80.82
213.3 K, x1 = 0.26	89.38
213.45 K, x1 = 0.16	76.84
213.45 K, x1 = 0.68	137.55
217.04 K, x1 = 0.19	82.55
217.04 K, x1 = 0.26	88.06
217.05 K, x1 = 0.16	81.72
217.07 K, x1 = 0.15	77.88
217.19 K, x1 = 0.68	129.59
219.93 K, x1 = 0.19	82.26
219.93 K, x1 = 0.26	90.36
220.08 K, x1 = 0.68	136.98
220.09 K, x1 = 0.16	76.56
221.78 K, x1 = 0.19	83.7
221.79 K, x1 = 0.16	83.08
221.79 K, x1 = 0.26	89.71
221.81 K, x1 = 0.15	79.21
221.94 K, x1 = 0.68	130.73
223.25 K, x1 = 0.19	82.84
223.25 K, x1 = 0.26	91.35
226.53 K, x1 = 0.16	84.44
226.53 K, x1 = 0.19	84.86
226.53 K, x1 = 0.26	91.02
226.55 K, x1 = 0.15	80.8
226.68 K, x1 = 0.68	132.44
229.89 K, x1 = 0.26	92.99
231.26 K, x1 = 0.19	86.01
231.26 K, x1 = 0.26	92.34
231.27 K, x1 = 0.16	85.52
231.3 K, x1 = 0.15	82.4
231.42 K, x1 = 0.68	133.57
233.2 K, x1 = 0.26	94.31
236.01 K, x1 = 0.16	86.88
236.01 K, x1 = 0.19	87.46
236.01 K, x1 = 0.26	93.65
236.04 K, x1 = 0.15	83.99
236.16 K, x1 = 0.68	135.28
239.85 K, x1 = 0.26	96.28
240.75 K, x1 = 0.16	88.51
240.75 K, x1 = 0.19	88.61
240.75 K, x1 = 0.26	94.96
240.78 K, x1 = 0.15	85.59
240.9 K, x1 = 0.68	136.98
243.17 K, x1 = 0.26	97.59
245.5 K, x1 = 0.16	89.6
245.5 K, x1 = 0.19	90.05
245.5 K, x1 = 0.26	96.61
245.53 K, x1 = 0.15	87.18
245.64 K, x1 = 0.68	138.69
249.82 K, x1 = 0.26	99.89
250.25 K, x1 = 0.16	90.95
250.25 K, x1 = 0.19	91.5
250.25 K, x1 = 0.26	97.92
250.28 K, x1 = 0.15	88.51
250.4 K, x1 = 0.68	140.39
253.15 K, x1 = 0.26	101.21
255 K, x1 = 0.16	91.77
255 K, x1 = 0.19	92.36
255 K, x1 = 0.26	99.24
255.03 K, x1 = 0.15	89.84
255.14 K, x1 = 0.68	142.67
259.75 K, x1 = 0.16	92.85
259.75 K, x1 = 0.19	93.81
259.75 K, x1 = 0.26	100.55
259.78 K, x1 = 0.15	90.9
259.8 K, x1 = 0.19	95.54
259.8 K, x1 = 0.26	103.51
259.89 K, x1 = 0.68	144.37
259.95 K, x1 = 0.16	93.4
259.95 K, x1 = 0.68	154.04
259.96 K, x1 = 0.15	93.83
263.13 K, x1 = 0.19	96.69
263.13 K, x1 = 0.26	104.82
263.27 K, x1 = 0.68	155.17
263.28 K, x1 = 0.16	94.48
263.29 K, x1 = 0.15	94.62
264.5 K, x1 = 0.16	93.94
264.5 K, x1 = 0.19	94.96
264.5 K, x1 = 0.26	101.87
264.53 K, x1 = 0.15	92.23
264.64 K, x1 = 0.68	146.65
269.26 K, x1 = 0.16	94.48
269.26 K, x1 = 0.19	95.83
269.26 K, x1 = 0.26	103.18
269.29 K, x1 = 0.15	93.29
269.4 K, x1 = 0.68	148.35
269.78 K, x1 = 0.19	98.71
269.79 K, x1 = 0.26	107.45
269.93 K, x1 = 0.68	158.01
269.94 K, x1 = 0.16	96.66
269.95 K, x1 = 0.15	96.75
273.12 K, x1 = 0.19	99.87
273.13 K, x1 = 0.26	108.44
273.27 K, x1 = 0.68	159.15
273.29 K, x1 = 0.15	97.28
273.29 K, x1 = 0.16	97.74
274.05 K, x1 = 0.16	95.3
274.05 K, x1 = 0.19	96.98
274.05 K, x1 = 0.26	104.49
274.09 K, x1 = 0.15	93.83
274.2 K, x1 = 0.68	150.62
278.96 K, x1 = 0.26	105.81
278.97 K, x1 = 0.16	96.11
278.97 K, x1 = 0.19	98.13
279 K, x1 = 0.15	94.89
279.12 K, x1 = 0.68	152.9
280 K, x1 = 0.19	101.02
280.01 K, x1 = 0.26	109.42
280.15 K, x1 = 0.68	160.29
280.17 K, x1 = 0.15	97.81
280.17 K, x1 = 0.16	98.83
283.44 K, x1 = 0.19	101.31
283.44 K, x1 = 0.26	110.08
283.59 K, x1 = 0.68	160.86
283.61 K, x1 = 0.16	99.37
283.62 K, x1 = 0.15	98.08
283.88 K, x1 = 0.16	96.38
283.88 K, x1 = 0.19	97.85
283.88 K, x1 = 0.26	106.79
283.92 K, x1 = 0.15	95.42
284.02 K, x1 = 0.68	155.17
